# Experiments:
# [1] = tested on: BLM/c-MYC G4 quadruplex DNA; test: Disruption of BLM/c-MYC G4 quadruplex DNA (unknown origin) interaction incubated for 1 hrs by ELISA; assay type: protein assay
# RNA = test: Binding affinity to NRAS RNA mutant (unknown origin) assessed as binding constant by SPR analysis
# [2] = Binding affinity to G-rich KRAS DNA (unknown origin) assessed as binding constant by SPR analysis
# Quadruplex DNA [3] = test: Binding affinity to c-MYC G4 quadruplex DNA Pu22 (unknown origin) assessed as binding constant by SPR analysis; assay type: nucleic-acid assay
# [4] = Binding affinity to G-rich HRAS DNA (unknown origin) assessed as binding constant by SPR analysis
# [5] = Binding affinity to G-rich NRAS RNA (unknown origin) assessed as binding constant by SPR analysis
# [6] = tested on: DHX36/c-MYC G4 quadruplex DNA; test: Disruption of DHX36/c-MYC G4 quadruplex DNA (unknown origin) interaction incubated for 1 hrs by ELISA; assay type: protein assay
# Quadruplex DNA [7] = test: Binding affinity to c-MYC G4- quadruplex DNA Pu22 (unknown origin) assessed as binding constant by SPR analysis; assay type: nucleic-acid assay
# [8] = tested on: NM23-H2/c-MYC G4 quadruplex DNA; test: Disruption of NM23-H2/c-MYC G4 quadruplex DNA (unknown origin) interaction incubated for 1 hrs by ELISA; assay type: protein assay
# Quadruplex DNA [9] = test: Stabilization of c-MYC G4 quadruplex DNA Pu22 (unknown origin) assessed as change in melting temperature at 2 uM by CD spectroscopy; assay type: nucleic-acid assay
# [10] = Binding affinity to human G-rich Htg22 DNA assessed as binding constant by SPR analysis
# [11] = Binding affinity to Hairpin DNA (unknown origin) assessed as binding constant by SPR analysis
# [12] = Cytotoxicity against human HBL-100 cells assessed as reduction in cell viability measured after 48 hrs by MTT assay; assay type: toxicity, cell-based
# HepG2 = test: Cytotoxicity against human HepG2 cells assessed as reduction in cell viability measured after 48 hrs by MTT assay; assay type: functional, cell-based; conditions: HepG2, 48 h
# MDA-MB-231 = test: Cytotoxicity against human MDA-MB-231 cells assessed as reduction in cell viability measured after 48 hrs by MTT assay; assay type: functional, cell-based; conditions: MDA-MB-231, 48 h
Structure (SMILES),IC50 [1],Kd (RNA),Kd [2],Kd (Quadruplex DNA [3]),Kd [4],Kd [5],IC50 [6],Kd (Quadruplex DNA [7]),IC50 [8],ΔTm (Quadruplex DNA [9]),Kd [10],Kd [11],IC50 at 48 h [12],IC50 (HepG2),IC50 (MDA-MB-231)
CCn1c2ccccc2c2cc(-c3nc(-c4ccc(N5CCN(C)CC5)cc4)c(-c4ccc(N5CCN(C)CC5)cc4)n3-c3ccc(OCCOCCO)cc3)ccc21,3.9 µM,> 20 µM,8.2 µM,> 20 µM,5.9 µM,15.8 µM,8.2 µM,2.6 µM,1.1 µM,20.8 °C,> 20 µM,> 20 µM,–,–,–
COc1ccc(-n2c(-c3ccc4c(c3)c3ccccc3n4Cc3cn(CCOCCO[C@@H]4O[C@H](COC(C)=O)[C@@H](OC(C)=O)[C@H](OC(C)=O)[C@H]4OC(C)=O)nn3)nc(-c3ccc(N4CCN(C)CC4)cc3)c2-c2ccc(N3CCN(C)CC3)cc2)cc1,–,> 20 µM,> 20 µM,> 20 µM,> 20 µM,> 20 µM,–,3 µM,–,15.9 °C,> 20 µM,> 20 µM,19.3 µM,11 µM,6.4 µM
"CCn1c2ccccc2c2cc(-c3nc(-c4ccc(N5CCN(C)CC5)cc4)c(-c4ccc(N5CCN(Cc6cn(CCOCCO[C@@H]7O[C@H](CO)[C@@H](O)[C@H](O)[C@H]7O)nn6)CC5)cc4)[nH]3)ccc21 (single isomer, unassigned)",–,> 20 µM,4.8 µM,> 20 µM,2.5 µM,11.7 µM,–,1.7 µM,–,19.2 °C,> 20 µM,> 20 µM,–,–,–
"CCn1c2ccccc2c2cc(-c3nc(-c4ccc(N5CCN(C)CC5)cc4)c(-c4ccc(N5CCN(C)CC5)cc4)n3-c3ccc(OCCCOC4(C)O[C@H]5O[C@H](COC(C)=O)[C@@H](OC(C)=O)[C@H](OC(C)=O)[C@H]5O4)cc3)ccc21 (single isomer, unassigned)",–,> 20 µM,> 20 µM,> 20 µM,> 20 µM,> 20 µM,–,4.1 µM,–,16 °C,> 20 µM,> 20 µM,4.4 µM,7.8 µM,3.6 µM
"CCn1c2ccccc2c2cc(-c3nc(-c4ccc(N5CCN(C)CC5)cc4)c(-c4ccc(N5CCN(C)CC5)cc4)n3-c3ccc(OCCOCCO[C@@H]4O[C@H](CO)[C@@H](O)[C@H](O)[C@H]4O)cc3)ccc21 (single isomer, unassigned)",–,> 20 µM,> 20 µM,> 20 µM,> 20 µM,> 20 µM,–,1.6 µM,–,18 °C,> 20 µM,> 20 µM,–,> 32 µM,> 32 µM
"CCn1c2ccccc2c2cc(-c3nc(-c4ccc(N5CCN(C)CC5)cc4)c(-c4ccc(N5CCN(C)CC5)cc4)n3-c3ccc(OCCCO[C@@H]4O[C@H](CO)[C@@H](O)[C@H](O)[C@H]4O)cc3)ccc21 (single isomer, unassigned)",–,> 20 µM,15 µM,> 20 µM,14.3 µM,> 20 µM,–,1.8 µM,–,16.7 °C,> 20 µM,> 20 µM,–,> 32 µM,> 32 µM
"CCn1c2ccccc2c2cc(-c3nc(-c4ccc(N5CCN(C)CC5)cc4)c(-c4ccc(N5CCN(C)CC5)cc4)n3-c3ccc(OCCOCCO[C@@H]4O[C@H](CO)[C@@H](O)[C@H](O)[C@H]4NC(=O)C(F)(F)F)cc3)ccc21 (single isomer, unassigned)",–,> 20 µM,17.9 µM,> 20 µM,19.9 µM,16.1 µM,–,4.1 µM,–,16.3 °C,> 20 µM,> 20 µM,–,> 32 µM,> 32 µM
"CCn1c2ccccc2c2cc(-c3nc(-c4ccc(N5CCN(C)CC5)cc4)c(-c4ccc(N5CCN(Cc6cn(CCOCCO[C@@H]7O[C@H](COC(C)=O)[C@@H](OC(C)=O)[C@H](OC(C)=O)[C@H]7OC(C)=O)nn6)CC5)cc4)[nH]3)ccc21 (single isomer, unassigned)",–,> 20 µM,17.2 µM,> 20 µM,8.2 µM,> 20 µM,–,1 µM,–,17.8 °C,> 20 µM,> 20 µM,–,> 32 µM,> 32 µM
"CCn1c2ccccc2c2cc(-c3nc(-c4ccc(N5CCN(C)CC5)cc4)c(-c4ccc(N5CCN(Cc6cn([C@@H]7O[C@H](CO)[C@H](O)[C@H](O)[C@H]7O)nn6)CC5)cc4)[nH]3)ccc21 (single isomer, unassigned)",–,> 20 µM,5.8 µM,> 20 µM,2.7 µM,9.9 µM,–,1.6 µM,–,18.4 °C,> 20 µM,> 20 µM,–,–,–
"CCn1c2ccccc2c2cc(-c3nc(-c4ccc(N5CCN(C)CC5)cc4)c(-c4ccc(N5CCN(C)CC5)cc4)n3-c3ccc(OCCCO[C@@H]4O[C@H](CO)[C@H](O)[C@H](O)[C@H]4O)cc3)ccc21 (single isomer, unassigned)",–,> 20 µM,> 20 µM,> 20 µM,16.6 µM,> 20 µM,–,1.4 µM,–,16.9 °C,> 20 µM,> 20 µM,–,> 32 µM,> 32 µM
"COc1ccc(-n2c(-c3ccc4c(c3)c3ccccc3n4Cc3cn(CCOCCO[C@@H]4O[C@H](CO)[C@@H](O)[C@H](O)[C@H]4O)nn3)nc(-c3ccc(N4CCN(C)CC4)cc3)c2-c2ccc(N3CCN(C)CC3)cc2)cc1 (single isomer, unassigned)",–,> 20 µM,17.8 µM,> 20 µM,15.5 µM,19.2 µM,–,2.2 µM,–,17.7 °C,> 20 µM,> 20 µM,–,> 32 µM,> 32 µM
"CCn1c2ccccc2c2cc(-c3nc(-c4ccc(N5CCN(C)CC5)cc4)c(-c4ccc(N5CCN(C)CC5)cc4)n3CCOCCO[C@@H]3O[C@H](CO)[C@@H](O)[C@H](O)[C@H]3O)ccc21 (single isomer, unassigned)",–,> 20 µM,12.9 µM,> 20 µM,13.7 µM,> 20 µM,–,3.5 µM,–,16.3 °C,> 20 µM,> 20 µM,–,–,–
"CCn1c2ccccc2c2cc(-c3nc(-c4ccc(N5CCN(C)CC5)cc4)c(-c4ccc(N5CCN(C)CC5)cc4)n3-c3ccc(OCCOCCO[C@@H]4O[C@H](CO)[C@H](O)[C@H](O)[C@H]4O)cc3)ccc21 (single isomer, unassigned)",–,> 20 µM,18.2 µM,> 20 µM,14.4 µM,16.4 µM,–,2 µM,–,16.2 °C,> 20 µM,> 20 µM,–,> 32 µM,> 32 µM
"CCn1c2ccccc2c2cc(-c3nc(-c4ccc(N5CCN(C)CC5)cc4)c(-c4ccc(N5CCN(Cc6cn([C@@H]7O[C@H](CO)[C@@H](O)[C@H](O)[C@H]7O)nn6)CC5)cc4)[nH]3)ccc21 (single isomer, unassigned)",–,> 20 µM,7 µM,> 20 µM,3.3 µM,11.8 µM,–,1.9 µM,–,15.8 °C,> 20 µM,> 20 µM,–,–,–
